# In US9980943B2, “Methods of treating muscular dystrophy” (BOARD OF REGENTS OF THE NEVADA SYSTEM OF HIGHER EDUCATION, …, priority 2013, dated 2018):
# Where two headings read alike, the source gives them in different places.
# What was measured:
# [1] = system: α7 integrin (LacZ reporter in α7LacZ+/− myoblasts); assay: qHTS of the LOPAC library and MLSMR (online screen, α7LacZ+/− myoblasts); settings: for Online Screen Fold-change / Online Screen Score: MLSMR qHTS, myoblasts; for activation at 0.307 µM / activation at 1.53 µM / activation at 7.66 µM / activation at 38.3 µM / Emax / EC50: Mus musculus, Myoblast; for activation at 0.307 µM: read-out: Activity at 0.307 uM [%] **; for activation at 1.53 µM: read-out: Activity at 1.530 uM [%] **; for activation at 7.66 µM: read-out: Activity at 7.660 uM [%] **; for activation at 38.3 µM: read-out: Activity at 38.30uM [%] **; for EC50: read-out: Fit LogAC50 (converted)
# [2] = system: α7 integrin (LacZ reporter in α7+/LacZ myotubes); assay: Myotube α7 integrin FDG assay (Burkin assay in myotubes, 96-well); assay type: cell-based, mouse; settings: for MT FOLD INCREASE / EC50: myotubes; for MT FOLD INCREASE: maximum response; for EC50: nonlinear regression of dose-response curves, read-out: EC50 α7+/LacZ MT; for Burkin Assay in Myotubes, value relative to DMSO: SU9516 analogs, 96-well, N=3-6
# [3] = system: β-galactosidase in CMV-LacZ C2C12 myotubes; assay: CMV-LacZ secondary screen in C2C12 myotubes (β-Gal stabilizing assay); assay type: cell-based, mouse; settings: SU9516 analogs, C2C12 CMV-LacZ, N=2
# Summary of the method: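 β-gal stabilization was measured in C2C12 myoblasts or myotubes stably transfected with a CMV-driven LacZ construct, using the FDG β-gal assay. Compounds were tested in dose-response at 0.5, 1, 5, 10, 20 and 40 μM, with two replicates per point.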
# [4] = system: β-galactosidase in CMV-LacZ C2C12 myoblasts; assay: CMV-LacZ secondary screen in C2C12 myoblasts (β-Gal stabilizing assay); assay type: cell-based, mouse; settings: SU9516 analogs, C2C12 CMV-LacZ, N=2
# From the text: In order to determine compounds that acted to stabilize β-gal in myogenic cells, a CMV-LacZ C2C12 cell line was used in a secondary screen. The EGFP gene from the pEGFP (Clontech) vector was replaced by LACZ PCR product with digests of the vector/PCR product performed using EcoRI (NEB) and NotI (NEB) and ligated using T4 DNA Ligase (NEB) following standard procedures to produce the CMV-LACZ vector. The LACZ gene was generated by PCR from the pBK-RSV (Stratagene) vector using primers LACZ EcoRI F- and LACZ NotI R-. The CMV-LACZ vector was then digested with AfIII (NEB) to linearize the construct, which was then transfected in C2C12 myoblasts using Lipofectamine 2000 (Invitrogen) following the manufacturer's instructions. […] Clonal lines were selected and screened for βgal levels using the myoblast FDG assay.
# The assays were used the original 96-well format and new dose-response curves for myoblasts (N=3-6 replicates for each data point), myotubes (N=3-6 replicates for data point), and CMV-LacZ secondary assay (N=2 replicates for each data point) using concentrations of 0.5 μM, 1 μM, 5 μM, 10 μM, 20 μM, and 40 μM (Tables 9-16).
# [5] = system: α7 integrin (LacZ reporter in α7βgal+/− myoblasts); assay: Myoblast α7+/LacZ integrin FDG assay (Burkin assay in myoblasts, 96-well); assay type: cell-based, mouse; settings: SU9516 analogs, 96-well, N=3-6
# [6] = 48 h, read-out: Fit Infinite Activity [%]
smiles,measurement,setting,value
O=C(Nc1ccc(N2CCN(C(=O)c3ccccc3F)CC2)cc1)c1cncc(Br)c1 [MLS001060533],Online Screen Fold-change,[1],1.9
same,Online Screen Score,[1],42
same,MT FOLD INCREASE,[2],1.5 fold
same,EC50,[2],4.7 µM
O=Nc1c(-c2c(O)[nH]c3cc(Br)ccc23)[nH]c2ccccc12 [NCGC00094112-04],"CMV-LACZ in Myotubes, value relative to DMSO",[3]; 0.5 uM,1.0409
same,"CMV-LACZ in Myotubes, value relative to DMSO",[3]; 1 uM,0.8864
same,"CMV-LACZ in Myotubes, value relative to DMSO",[3]; 5 uM,0.8123
same,"CMV-LACZ in Myotubes, value relative to DMSO",[3]; 10 uM,0.7933
same,"CMV-LACZ in Myotubes, value relative to DMSO",[3]; 20 uM,0.7190
same,"CMV-LACZ in Myotubes, value relative to DMSO",[3]; 40 uM,0.5420
same,"CMV-LACZ in Myoblasts, value relative to DMSO",[4]; 0.5 uM,1.1721
same,"CMV-LACZ in Myoblasts, value relative to DMSO",[4]; 1 uM,1.1779
same,"CMV-LACZ in Myoblasts, value relative to DMSO",[4]; 5 uM,1.0309
same,"CMV-LACZ in Myoblasts, value relative to DMSO",[4]; 10 uM,1.0782
same,"CMV-LACZ in Myoblasts, value relative to DMSO",[4]; 20 uM,0.4403
same,"CMV-LACZ in Myoblasts, value relative to DMSO",[4]; 40 uM,0.3627
same,"Burkin Assay in Myotubes, value relative to DMSO",[2]; 0.5 uM,0.7402
same,"Burkin Assay in Myotubes, value relative to DMSO",[2]; 1 uM,0.8159
same,"Burkin Assay in Myotubes, value relative to DMSO",[2]; 5 uM,0.7596
same,"Burkin Assay in Myotubes, value relative to DMSO",[2]; 10 uM,0.629
same,"Burkin Assay in Myotubes, value relative to DMSO",[2]; 20 uM,0.6813
same,"Burkin Assay in Myotubes, value relative to DMSO",[2]; 40 uM,0.35
same,"Burkin Assay in Myoblasts, value relative to DMSO",[5]; 0.5 uM,1.019
same,"Burkin Assay in Myoblasts, value relative to DMSO",[5]; 1 uM,0.9927
same,"Burkin Assay in Myoblasts, value relative to DMSO",[5]; 5 uM,0.5722
same,"Burkin Assay in Myoblasts, value relative to DMSO",[5]; 10 uM,0.4943
same,"Burkin Assay in Myoblasts, value relative to DMSO",[5]; 20 uM,0.4509
same,"Burkin Assay in Myoblasts, value relative to DMSO",[5]; 40 uM,0.3428
CN(C)c1ccnc2sc(C(N)=O)c(N)c12 [MLS000532969],Online Screen Score,[1],44
same,EC50,[2],2.2 µM
CC1CCCCN1c1ncnc(N)c1[N+](=O)[O-] (centres unmarked) [MLS000683234],Online Screen Fold-change,[1],2.6
same,Online Screen Score,[1],46
same,MT FOLD INCREASE,[2],1.7 fold
same,EC50,[2],27 µM
Cc1cc(C)c(/C=C2\C(=O)Nc3ccccc32)[nH]1 [NCGC00094381-04],"CMV-LACZ in Myotubes, value relative to DMSO",[3]; 0.5 uM,1.0845
same,"CMV-LACZ in Myotubes, value relative to DMSO",[3]; 1 uM,1.4927
same,"CMV-LACZ in Myotubes, value relative to DMSO",[3]; 5 uM,1.2849
same,"CMV-LACZ in Myotubes, value relative to DMSO",[3]; 10 uM,1.1010
same,"CMV-LACZ in Myotubes, value relative to DMSO",[3]; 20 uM,3.8710
same,"CMV-LACZ in Myotubes, value relative to DMSO",[3]; 40 uM,8.1220
same,"CMV-LACZ in Myoblasts, value relative to DMSO",[4]; 0.5 uM,1.0763
same,"CMV-LACZ in Myoblasts, value relative to DMSO",[4]; 5 uM,1.1366
same,"CMV-LACZ in Myoblasts, value relative to DMSO",[4]; 10 uM,0.9770
same,"CMV-LACZ in Myoblasts, value relative to DMSO",[4]; 20 uM,0.9330
same,"CMV-LACZ in Myoblasts, value relative to DMSO",[4]; 40 uM,0.9697
COc1ccc(CN2CCNC(=O)C2CC(=O)NCCc2c[nH]c3ccccc23)c(OC)c1 (centres unmarked) [Compound 208],activation at 0.307 µM,[1]; 48 h,-7.84%
same,activation at 1.53 µM,[1]; 48 h,-10.8%
same,activation at 7.66 µM,[1]; 48 h,16.4%
same,activation at 38.3 µM,[1]; 48 h,73.4%
same,Emax,[1]; [6],74.6%
same,EC50,[1],10 µM
same,Emax,[1]; read-out: Max Response [%],73.4%
CN(C)S(=O)(=O)c1cccc(C(=O)Nc2ccc3c(c2)CCC3)c1 [Compound 8],activation at 0.307 µM,[1]; 48 h,-15.4%
same,activation at 1.53 µM,[1]; 48 h,-10.6%
same,activation at 7.66 µM,[1]; 48 h,96.4%
same,activation at 38.3 µM,[1]; 48 h,94.3%
same,Emax,[1]; [6],96%
same,EC50,[1],2.82 µM
CN(C)C1(C/N=C/c2cc(Cl)cc([N+](=O)[O-])c2O)CCCCC1 [Compound 101],activation at 0.307 µM,[1]; 48 h,-14.2%
same,activation at 1.53 µM,[1]; 48 h,-11.6%
same,activation at 7.66 µM,[1]; 48 h,43.3%
same,activation at 38.3 µM,[1]; 48 h,104%
same,Emax,[1]; [6],116%
same,EC50,[1],8.91 µM
same,Emax,[1]; read-out: Max Response [%],104%
same,Score,[1]; Table 8 Compound data,43
CN(C)CCNc1ncnc2sc(-c3ccccc3)cc12 [Compound 163],activation at 0.307 µM,[1]; 48 h,-0.804%
same,activation at 1.53 µM,[1]; 48 h,-0.389%
same,activation at 7.66 µM,[1]; 48 h,19.4%
same,activation at 38.3 µM,[1]; 48 h,78.1%
same,Emax,[1]; [6],78.3%
same,EC50,[1],10 µM
same,Emax,[1]; read-out: Max Response [%],78.1%
CC1(C)Cc2c(cnn2-c2cccc(F)c2)C(NC(=O)CCc2cnccn2)C1 (centres unmarked) [Compound 154],activation at 0.307 µM,[1]; 48 h,-36.1%
same,activation at 1.53 µM,[1]; 48 h,-14.4%
same,activation at 7.66 µM,[1]; 48 h,17.9%
same,activation at 38.3 µM,[1]; 48 h,38.9%
same,Emax,[1]; [6],47.5%
same,Emax,[1]; read-out: Max Response [%],38.9%
Cc1ccc(-c2csnn2)cc1 [Compound 170],activation at 0.307 µM,[1]; 48 h,2.36%
same,activation at 1.53 µM,[1]; 48 h,5.33%
same,activation at 7.66 µM,[1]; 48 h,22.2%
same,activation at 38.3 µM,[1]; 48 h,87.6%
same,Emax,[1]; [6],87.8%
same,EC50,[1],10 µM
same,Emax,[1]; read-out: Max Response [%],87.6%
